Reference: PMC7422722, “The complete functional characterisation of the terpene synthase family in tomato” (The New Phytologist, 2020)

Key:
Assay type in all cases: biochemical
TPS52 = target: T1, TPS52 (Solanum lycopersicum, UniProt A0A6H0JLZ2); assay: in vitro assay, GC-MS of products
T1 construct: recombinant, E. coli (codon-optimised gene made), His-tagged, purified; full length 551 residues; gene on chromosome 7
T1 sequence (A0A6H0JLZ2 1-551): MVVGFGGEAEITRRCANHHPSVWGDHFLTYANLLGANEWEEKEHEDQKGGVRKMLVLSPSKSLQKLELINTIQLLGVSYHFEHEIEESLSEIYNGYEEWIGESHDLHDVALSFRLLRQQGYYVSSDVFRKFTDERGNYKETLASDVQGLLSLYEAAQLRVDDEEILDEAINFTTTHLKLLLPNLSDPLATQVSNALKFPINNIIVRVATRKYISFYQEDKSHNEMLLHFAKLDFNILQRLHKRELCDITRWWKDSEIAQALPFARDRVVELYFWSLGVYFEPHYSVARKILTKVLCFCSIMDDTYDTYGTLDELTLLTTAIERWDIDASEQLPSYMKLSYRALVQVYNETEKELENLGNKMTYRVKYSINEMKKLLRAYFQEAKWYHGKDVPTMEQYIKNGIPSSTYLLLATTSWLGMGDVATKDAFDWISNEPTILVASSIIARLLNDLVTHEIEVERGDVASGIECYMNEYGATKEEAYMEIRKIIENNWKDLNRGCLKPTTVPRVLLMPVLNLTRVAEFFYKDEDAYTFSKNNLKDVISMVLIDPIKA

TPS33 = target: T2, TPS33 (Solanum lycopersicum, UniProt G5CV44); assay: in vitro assay, GC-MS of products; details: several sesquiterpene products
T2 construct: recombinant, E. coli pET32b or pET28a, His-tagged, purified
T2 sequence (G5CV44 1-552): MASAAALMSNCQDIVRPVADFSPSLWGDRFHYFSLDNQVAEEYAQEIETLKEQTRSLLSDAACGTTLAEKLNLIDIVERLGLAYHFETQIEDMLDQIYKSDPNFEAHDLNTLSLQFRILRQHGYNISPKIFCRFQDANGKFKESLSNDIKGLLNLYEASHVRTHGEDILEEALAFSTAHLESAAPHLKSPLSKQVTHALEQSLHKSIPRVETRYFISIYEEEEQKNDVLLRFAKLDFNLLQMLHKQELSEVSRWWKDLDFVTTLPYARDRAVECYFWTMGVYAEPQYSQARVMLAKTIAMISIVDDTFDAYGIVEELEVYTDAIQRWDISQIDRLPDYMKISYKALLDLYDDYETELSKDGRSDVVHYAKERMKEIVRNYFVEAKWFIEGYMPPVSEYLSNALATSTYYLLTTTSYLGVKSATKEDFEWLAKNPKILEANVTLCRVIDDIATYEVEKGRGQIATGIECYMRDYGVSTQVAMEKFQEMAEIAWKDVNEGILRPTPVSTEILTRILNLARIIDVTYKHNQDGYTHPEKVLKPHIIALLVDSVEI

TPS28 = target: T3, TPS28 (Solanum lycopersicum, UniProt G5CV47); assay: in vitro assay, GC-MS of products; details: product unidentified sesquiterpene
T3 construct: recombinant, E. coli pET32b or pET28a, His-tagged, purified
T3 sequence (G5CV47 1-554): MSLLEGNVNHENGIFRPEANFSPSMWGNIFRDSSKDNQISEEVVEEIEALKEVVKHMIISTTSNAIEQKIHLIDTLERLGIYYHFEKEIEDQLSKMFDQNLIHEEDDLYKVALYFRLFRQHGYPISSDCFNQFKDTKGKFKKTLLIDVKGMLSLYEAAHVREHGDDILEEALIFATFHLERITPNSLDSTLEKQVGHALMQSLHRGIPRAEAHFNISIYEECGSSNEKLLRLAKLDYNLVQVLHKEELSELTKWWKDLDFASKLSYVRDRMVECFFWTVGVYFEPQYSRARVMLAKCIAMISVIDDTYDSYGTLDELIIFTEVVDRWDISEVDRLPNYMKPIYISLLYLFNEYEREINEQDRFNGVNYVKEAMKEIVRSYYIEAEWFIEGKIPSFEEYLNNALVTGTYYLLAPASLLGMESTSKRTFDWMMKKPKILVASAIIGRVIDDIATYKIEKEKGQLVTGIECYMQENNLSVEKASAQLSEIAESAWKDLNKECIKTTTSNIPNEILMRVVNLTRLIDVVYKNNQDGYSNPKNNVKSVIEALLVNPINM

TPS36 = target: T4, TPS36 (Solanum lycopersicum, UniProt G5CV42); assay: in vitro assay, GC-MS of products; details: product mostly cis-muurola-3,5-diene
T4 construct: recombinant, E. coli pET32b or pET28a, His-tagged, purified, putative transit peptide removed (mitochondrial enzyme)
T4 sequence (G5CV42 entry or part of it): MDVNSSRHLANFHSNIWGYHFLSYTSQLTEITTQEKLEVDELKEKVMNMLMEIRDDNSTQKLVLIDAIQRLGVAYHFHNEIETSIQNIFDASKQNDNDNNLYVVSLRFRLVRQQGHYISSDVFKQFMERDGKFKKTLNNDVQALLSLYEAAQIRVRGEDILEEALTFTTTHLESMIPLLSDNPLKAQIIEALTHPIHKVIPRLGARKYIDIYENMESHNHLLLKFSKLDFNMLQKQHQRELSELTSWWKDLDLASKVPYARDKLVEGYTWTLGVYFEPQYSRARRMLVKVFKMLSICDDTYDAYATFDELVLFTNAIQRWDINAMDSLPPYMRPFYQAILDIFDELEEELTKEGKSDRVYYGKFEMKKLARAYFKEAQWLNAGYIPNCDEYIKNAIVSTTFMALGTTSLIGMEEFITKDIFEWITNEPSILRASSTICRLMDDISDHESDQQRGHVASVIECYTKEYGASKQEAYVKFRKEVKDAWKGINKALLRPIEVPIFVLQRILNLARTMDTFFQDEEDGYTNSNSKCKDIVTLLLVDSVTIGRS

TPS35 = target: T5, TPS35 (Solanum lycopersicum, UniProt G5CV43); assay: in vitro assay, GC-MS of products; details: product predominantly Z,Z-farnesol
T5 construct: recombinant, E. coli pET32b or pET28a, His-tagged, purified
T5 sequence (G5CV43 1-556): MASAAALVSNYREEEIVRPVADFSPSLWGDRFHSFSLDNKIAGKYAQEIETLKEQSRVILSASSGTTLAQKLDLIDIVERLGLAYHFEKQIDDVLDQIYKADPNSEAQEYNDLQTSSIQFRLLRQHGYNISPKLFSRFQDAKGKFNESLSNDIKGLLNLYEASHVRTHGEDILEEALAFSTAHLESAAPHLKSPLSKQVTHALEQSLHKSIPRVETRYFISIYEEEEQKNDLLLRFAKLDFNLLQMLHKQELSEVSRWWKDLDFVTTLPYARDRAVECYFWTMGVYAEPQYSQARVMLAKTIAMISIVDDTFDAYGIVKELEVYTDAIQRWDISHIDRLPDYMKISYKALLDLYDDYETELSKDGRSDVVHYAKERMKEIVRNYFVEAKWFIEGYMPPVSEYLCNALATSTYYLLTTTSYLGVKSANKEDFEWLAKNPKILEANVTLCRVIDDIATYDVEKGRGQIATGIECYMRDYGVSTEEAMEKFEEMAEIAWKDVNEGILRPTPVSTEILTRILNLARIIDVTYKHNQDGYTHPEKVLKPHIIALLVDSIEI

TPS51 = target: T6, TPS51 (Solanum lycopersicum, UniProt A0A6H0JLJ2); assay: in vitro assay, GC-MS of products
T6 construct: recombinant, E. coli (codon-optimised gene made), His-tagged, purified; full length 550 residues; gene on chromosome 7
T6 sequence (A0A6H0JLJ2 1-550): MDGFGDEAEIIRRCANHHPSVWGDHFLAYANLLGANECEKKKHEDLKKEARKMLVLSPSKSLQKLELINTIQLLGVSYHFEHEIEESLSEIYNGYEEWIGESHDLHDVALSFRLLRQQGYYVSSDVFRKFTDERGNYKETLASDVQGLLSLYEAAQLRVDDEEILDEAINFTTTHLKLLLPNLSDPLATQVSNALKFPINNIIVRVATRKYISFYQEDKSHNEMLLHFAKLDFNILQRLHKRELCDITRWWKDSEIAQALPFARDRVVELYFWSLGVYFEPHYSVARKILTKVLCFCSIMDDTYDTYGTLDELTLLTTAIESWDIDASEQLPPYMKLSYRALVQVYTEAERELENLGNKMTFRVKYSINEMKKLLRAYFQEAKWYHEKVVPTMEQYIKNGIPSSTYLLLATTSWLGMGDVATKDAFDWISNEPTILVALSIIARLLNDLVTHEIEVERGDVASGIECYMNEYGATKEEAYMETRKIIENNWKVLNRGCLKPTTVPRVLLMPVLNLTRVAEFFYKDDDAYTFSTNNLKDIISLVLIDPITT

TPS27 = target: T7, TPS27 (Solanum lycopersicum, UniProt G5CV48); assay: in vitro assay, GC-MS of products; details: product alpha-farnesene
T7 construct: recombinant, E. coli pET32b or pET28a, His-tagged, purified
T7 sequence (G5CV48 1-554): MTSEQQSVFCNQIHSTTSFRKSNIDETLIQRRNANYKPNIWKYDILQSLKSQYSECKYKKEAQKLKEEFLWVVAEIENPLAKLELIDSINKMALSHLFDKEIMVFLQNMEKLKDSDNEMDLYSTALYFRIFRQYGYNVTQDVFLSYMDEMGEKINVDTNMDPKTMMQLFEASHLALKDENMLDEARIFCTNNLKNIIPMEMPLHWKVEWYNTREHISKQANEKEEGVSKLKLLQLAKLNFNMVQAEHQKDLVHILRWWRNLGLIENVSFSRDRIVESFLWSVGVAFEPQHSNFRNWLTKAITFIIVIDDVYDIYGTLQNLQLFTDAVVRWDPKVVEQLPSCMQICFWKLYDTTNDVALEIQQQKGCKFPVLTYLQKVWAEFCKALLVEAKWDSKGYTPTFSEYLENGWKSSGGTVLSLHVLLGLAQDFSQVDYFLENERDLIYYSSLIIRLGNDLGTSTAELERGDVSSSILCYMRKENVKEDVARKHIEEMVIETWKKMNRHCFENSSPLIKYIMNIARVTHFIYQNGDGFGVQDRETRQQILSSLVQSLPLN

GGPPS2 = target: T8, GGPPS2 (Solanum lycopersicum, UniProt Q1A7S9); assay: in vitro prenyltransferase assay, products hydrolysed, GC-MS; details: co-substrate IPP; without SSU
T8 construct: gene GGPS2
T8 sequence (Q1A7S9 57-363): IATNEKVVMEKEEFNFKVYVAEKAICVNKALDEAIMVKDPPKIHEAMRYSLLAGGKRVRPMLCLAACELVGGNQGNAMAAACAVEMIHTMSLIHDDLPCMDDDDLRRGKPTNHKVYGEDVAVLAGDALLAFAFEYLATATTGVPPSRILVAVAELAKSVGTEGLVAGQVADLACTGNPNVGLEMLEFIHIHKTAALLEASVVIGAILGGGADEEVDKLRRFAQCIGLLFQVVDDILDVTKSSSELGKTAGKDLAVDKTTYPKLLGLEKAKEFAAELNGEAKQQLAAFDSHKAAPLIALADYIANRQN

GGPPS1 = target: T9, GGPPS1 (Solanum lycopersicum, UniProt Q1A7T0); assay: as above; details: co-substrate IPP; without SSU
T9 construct: gene GGPS1
T9 sequence (Q1A7T0 60-365): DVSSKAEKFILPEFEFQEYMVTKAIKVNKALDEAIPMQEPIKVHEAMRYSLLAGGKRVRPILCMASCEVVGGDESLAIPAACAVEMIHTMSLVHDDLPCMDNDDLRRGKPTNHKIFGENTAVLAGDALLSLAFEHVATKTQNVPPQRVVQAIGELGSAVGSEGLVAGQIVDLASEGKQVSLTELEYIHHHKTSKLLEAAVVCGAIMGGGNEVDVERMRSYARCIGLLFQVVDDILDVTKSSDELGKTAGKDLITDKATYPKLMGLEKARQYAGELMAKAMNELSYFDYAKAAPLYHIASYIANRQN

TPS47 = target: T10, TPS47 (Solanum lycopersicum, UniProt K4BEJ5); assay: in vitro assay, headspace SPME GC-MS; details: product isoprene; 42 °C headspace collection
T10 construct: gene LOC101258440; recombinant, E. coli (codon-optimised gene made), His-tagged, purified; full length 562 residues; gene on chromosome 3
T10 sequence (K4BEJ5 1-562): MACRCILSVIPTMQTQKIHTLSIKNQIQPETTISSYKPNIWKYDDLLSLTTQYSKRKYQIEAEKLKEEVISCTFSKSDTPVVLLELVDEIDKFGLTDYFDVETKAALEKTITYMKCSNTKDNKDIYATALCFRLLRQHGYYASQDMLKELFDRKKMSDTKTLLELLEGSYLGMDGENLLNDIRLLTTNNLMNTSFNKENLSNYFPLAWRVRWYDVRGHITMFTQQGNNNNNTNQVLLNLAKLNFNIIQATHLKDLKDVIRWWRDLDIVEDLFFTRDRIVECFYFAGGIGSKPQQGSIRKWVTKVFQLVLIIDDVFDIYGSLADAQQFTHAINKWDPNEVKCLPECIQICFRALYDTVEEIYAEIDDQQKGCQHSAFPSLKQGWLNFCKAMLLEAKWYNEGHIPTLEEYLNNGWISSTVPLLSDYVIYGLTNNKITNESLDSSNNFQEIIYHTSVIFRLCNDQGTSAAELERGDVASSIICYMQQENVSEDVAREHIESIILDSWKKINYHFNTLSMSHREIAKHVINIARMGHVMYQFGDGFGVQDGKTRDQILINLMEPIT

TPS25 = target: T11, TPS25 (Solanum lycopersicum, UniProt G5CV49); assay: in vitro assay, GC-MS of products; details: product mostly beta-ocimene
T11 construct: recombinant, E. coli pET32b or pET28a, His-tagged, purified
T11 sequence (G5CV49 1-576): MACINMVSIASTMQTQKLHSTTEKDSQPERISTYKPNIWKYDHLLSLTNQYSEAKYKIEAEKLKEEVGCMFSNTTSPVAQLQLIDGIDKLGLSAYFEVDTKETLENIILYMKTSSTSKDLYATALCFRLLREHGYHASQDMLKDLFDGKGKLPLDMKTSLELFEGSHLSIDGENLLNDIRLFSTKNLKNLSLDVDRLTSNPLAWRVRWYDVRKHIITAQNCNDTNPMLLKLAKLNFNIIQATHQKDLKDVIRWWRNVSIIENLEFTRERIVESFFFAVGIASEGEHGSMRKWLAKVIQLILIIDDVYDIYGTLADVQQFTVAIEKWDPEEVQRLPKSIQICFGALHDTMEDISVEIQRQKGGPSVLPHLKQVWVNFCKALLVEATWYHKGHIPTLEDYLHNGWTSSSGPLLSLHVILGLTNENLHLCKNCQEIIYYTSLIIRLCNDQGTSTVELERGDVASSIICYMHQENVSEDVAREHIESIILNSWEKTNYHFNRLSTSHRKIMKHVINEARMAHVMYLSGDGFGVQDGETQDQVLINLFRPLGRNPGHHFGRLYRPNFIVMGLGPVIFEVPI

## CC(C)=CCC/C(C)=C\CC/C(C)=C\COP(=O)(O)OP(=O)(O)O [Z,Z-FPP]
TPS52; several sesquiterpene products
  in vitro assay, GC-MS of products: α-bisabolene, β-bisabolene and Z-β-farnesene) from Z,Z-FPP
TPS33
  in vitro assay, GC-MS of products: When assayed with Z,Z-FPP, TPS33 made several sesquiterpenes
TPS28
  in vitro assay, GC-MS of products: TPS28 and TPS48 also catalysed the formation of a major sesquiterpene from Z,Z-FPP
TPS36
  in vitro assay, GC-MS of products: TPS36 only had activity using Z,Z-FPP and produced mostly cis-muurola-3,5-diene
TPS35
  in vitro assay, GC-MS of products: while TPS35 made predominantly Z,Z-farnesol
TPS51; several sesquiterpene products
  in vitro assay, GC-MS of products: α-bisabolene, β-bisabolene and Z-β-farnesene) from Z,Z-FPP

## CC(C)=CCC/C(C)=C/CC/C(C)=C/COP(=O)(O)OP(=O)(O)O [E,E-FPP]
TPS52; product mostly E-nerolidol
  in vitro assay, GC-MS of products: catalysed the formation of mostly E-nerolidol from E,E-FPP
TPS27
  in vitro assay, GC-MS of products: TPS27 had activity only with E,E-FPP to form α-farnesene
TPS51; product mostly E-nerolidol
  in vitro assay, GC-MS of products: catalysed the formation of mostly E-nerolidol from E,E-FPP

## CC(C)=CCOP(=O)(O)OP(=O)(O)O [DMAPP]
GGPPS2
  in vitro prenyltransferase assay, products hydrolysed, GC-MS: affinity-purified His-tagged recombinant proteins were incubated with IPP and DMAPP
GGPPS1
  in vitro prenyltransferase assay, products hydrolysed, GC-MS: affinity-purified His-tagged recombinant proteins were incubated with IPP and DMAPP
TPS47
  in vitro assay, headspace SPME GC-MS: When tested in vitro, TPS47 catalysed the formation of isoprene from DMAPP

## CC(C)=CCC/C(C)=C/COP(=O)(O)OP(=O)(O)O [GPP]
TPS25
  in vitro assay, GC-MS of products: TPS25 had activity only with GPP as the substrate, producing mostly β-ocimene
